Read-outs that look alike come from different tables or passages of the source.
Columns and labels:
[1] = cited from earlier work
[2] = system: CD4 and CD8 T cells from human peripheral blood; test: T cell activation in PBMC, flow cytometry with TriMAP/FlowSOM; assay type: cell-based; settings: 10^-7 M, 24 h, anti-CD3 and anti-CD28, compared to ethanol treated cells
Description: Human peripheral blood mononuclear cells (PBMC) from two healthy individuals were obtained from a pre-existing respository. Their use was approved by the University of Alabama at Birmingham Institutional Review Board (Human Subject Assurance Number FWA00005960) as an exempt protocol #4 (Dr C. Raman, P.I.). […] Informed consent is waived in accord with 45CFR46.116 (d). In 48 well plates, 0.5×10^6 PBMC/well were cultured in RPMI1640 containing, 5% charcoal adsorbed FBS and antibiotics and T cells were activated using […] anti-CD3 (clone 145-2C11) and 1 μg/ml anti-CD28 (clone 37.51) for 24 h (Janjetovic Z, et. al., (2021) Endocrinology 162(1), Chaiprasongsuk A, et. al., (2020) Free Radic Biol Med 155 87-98, Slominski A T, et. al., (2011) Am J Physiol Cell Physiol 300(3) C526-41, McGuire D J, et. al., (2014) Eur J Immunol 44(4) 1137-42, Sestero C M, et. al., (2012) J Immunol 189(6) 2918-30). The culture was treated with 10^-7 M 20S(OH)D3, 20S,25(OH)2D3, 20S,23S(OH)2D3, 20S,23R(OH)2D3 or 1α,25(OH)2D3 (Sigma-Aldrich, St. Louis, MO, USA) dissolved in ethanol and diluted in culture medium at the same time of addition of anti-CD3 and anti-CD28. The vehicle control comprised of 0.1% ethanol. At the end of assay the cells were stained with antibodies to CD4 (clone RPA-T4, BV-421), CD19 (clone HB19, BV-510), CD14 (clone HCD14, Alexa 700), CD137 (clone 4B4-1, BV605), CD8a (clone RPA-T8, FITC), ICOS (clone C398.4A, PE/Dazzle), PD1 (clone NAT105, PE), CD80 (clone 2D10, PerCP/Cy5.5), OX40 (clone ACT35, PE/Cy7), CD69 (clone FN50, APC), HLA-DR (clone L243, APC/Fire 750). All antibodies were from Biolegend except anti-CD8 was from Thermo Fisher. The stained cells were analyzed using a CytoFLEX (Beckman Coulter) flow cytometer.
For unbiased analysis of the multidimensional data, acomputational algorithm-based approaches was utilized (Quintelier K, et. al., (2021) Nature Protocols 16(8) 3775-3801). The flow cytometry standard (FCS) data files from each individual and treatment (two individuals, six treatments including ethanol, a total of 12 data files) were processed through the following workflow—compensation, gating on live cells, gating for single cells and subtraction of CD19+(B cells) and CD14+(monocytes). B cells and monocytes were removed from the analysis because only T cells (CD4+ and CD8+) are activated by anti-CD3 and anti-CD28. After these initial gating steps, a key word was added to each of the 12 FCS files, down sampled to 50,000 events/sample and concatenated. Down sampling ascertains that each sample is equally weighted, and concatenation ascertains that statistical analysis is applied equally. The concatenated files were first subjected to TriMAP analysis, a computational algorithm that clusters populations based on triplet relatedness followed by FlowSOM algorithm-based clustering (Quintelier K, et. al., (2021) Nature Protocols 16(8) 3775-3801). To perform these analyses, plugins within FlowJo (BD, CA, USA) were used.
T cells in peripheral blood from two healthy individuals were activated with anti-CD3 and anti-CD28 in the absence (ethanol) or presence of 10^−7 M of each of the vitamin D3 secosteroids for 24 h. The cells were stained for lineage markers (CD4, CD8, CD19, CD14) and a panel of activation induced markers (CD69, ICOS, OX40, CD137, PD1, HLADR) and expression data were collected using a flow cytometer. The gating strategy was live, single cell followed by CD4 and CD8 T cell populations. […]

In the case of 25(OH)D3 [reference compound], the “calcemic activity / toxicity” value ([1]; literature, at the same doses) is given as “highly toxic”.

In the case of `C=C1/C(=C\C=C2/CCC[C@]3(C)[C@@H]([C@H](C)CCCC(C)(C)O)CC[C@@H]23)C[C@@H](O)C[C@@H]1O` [1α,25(OH)2D3, reference compound], the “CD4 T cells of population 4 (down modulated CD4, increased CD69 and ICOS)” value [2] is given as “fewer cells” and the “calcemic activity / toxicity” value ([1]; in vivo) is given as “highly toxic”.

For `C=C1CC[C@H](O)C/C1=C/C=C1\CCC[C@@]2(C)[C@H]1CC[C@@H]2[C@@](C)(O)CC(O)CC(C)C` (stereo partly shown) [20S,23(OH)2D3, 20,23-dihydroxyvitamin D3], the “CD4 T cells of population 4 (down modulated CD4, increased CD69 and ICOS)” value [2] was “no effect on this population”.

From patent US20240327320A1, “NOVEL ROUTES OF CHEMICAL SYNTHESIS OF 20S(OH)D3, 20S,25(OH)2D3, 20S,23S(OH)2D3, AND 20S,23R(OH)2D3 AND THEIR MODIFICATION OF THE IMMUNE ACTIVITY OF PBMCS” (United State Government as represen ted by the Department …, priority 2023, published 2024)
